Test results from US20260327234A1, “NOVEL COMPOUNDS AS CYP11A1 INHIBITORS AND METHODS OF USE THEREOF” (Shenzhen Ionova Life Science Co., Ltd., priority 2023, published 2026).

Experiments:
[1] = molecular target: T1, CYP11A1 (Homo sapiens, UniProt P05108); test: H295R Steroid Biosynthesis Inhibition Assay - inhibition of pregnenolone (P) production catalyzed by CYP11A1 in NCI-H295R cells; type: cell-based; conditions: 48 h, LC-MS/MS, read-out: Inh. of P IC50
T1 construct: measuring the cellular production of pregnenolone (P) catalyzed by CYP11A1; host or cells: NCI-H295R
T1 sequence (P05108 40-521): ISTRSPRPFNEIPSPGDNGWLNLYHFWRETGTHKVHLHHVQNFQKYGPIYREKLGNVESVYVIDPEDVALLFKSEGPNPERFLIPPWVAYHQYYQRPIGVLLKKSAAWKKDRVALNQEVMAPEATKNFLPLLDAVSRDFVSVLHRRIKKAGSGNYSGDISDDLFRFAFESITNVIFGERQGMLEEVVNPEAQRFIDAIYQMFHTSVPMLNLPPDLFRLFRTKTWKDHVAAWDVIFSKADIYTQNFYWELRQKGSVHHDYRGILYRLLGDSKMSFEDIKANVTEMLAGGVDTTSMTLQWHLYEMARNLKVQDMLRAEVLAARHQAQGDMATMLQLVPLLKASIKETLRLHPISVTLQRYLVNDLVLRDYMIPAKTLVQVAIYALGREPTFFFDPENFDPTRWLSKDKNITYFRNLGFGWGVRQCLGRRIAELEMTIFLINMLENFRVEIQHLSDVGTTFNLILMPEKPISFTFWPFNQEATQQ
Protocol: (§1) Steroid Biosynthesis Inhibition by test compounds in NCI-H295R cells (ATCC) was studied by measuring the cellular production of pregnenolone (P) catalyzed by CYP11A1 and the downstream steroid, testosterone (T). Cells were cultured in Dulbecco's modified eagle's medium F12 (DMEM/F12) with phenol red (Gibco, Cat. No. 11330032) supplemented with 2% UltroserG (Pall, Cat. No. 15950-017, USA), 1% ITS-Premix and 1% penicillin and streptomycin (Hyclone, Cat. No. SV30010, USA). Prior to the assay, cells were thawed and passed 4 times. The maximal passage number used for the assay was 10. For this assay, DMEM/F12 without phenol red supplemented with 10% charcoal-stripped fetal bovine serum (VivaCell, Cat. No. C3830-0500, USA) were used. In a 96-well plate, 60,000 cells/well were plated (90 μL/well) and incubated for 24 h. Test compounds, diluted in a serial dilution ranging from 1000 nM to 0.15 nM in the assay medium, were added to the plate. After 48 h of incubation, solution from each well were collected and transferred to individual 1.5 mL centrifuge tubes, and then 5 ng/mL deuterated testosterone (D3-testosterone) and 50 ng/mL deuterated pregnenolone (D4-pregnenolone) in 200 μL acetonitrile were added. After vigorously mixing for 5 min, the mixture was centrifuged at 12,700 rpm for 15 min. An aliquot of 250 μL supernatant was collected and dried under N2 stream. After addition of 150 μL Methanol:water (1:1, v/v) to the dried product, 50 μL sample of this solution was injected into the LC-MS/MS system for analysis.
(§2) The half-maximal inhibitory concentration (IC50) for steroid biosynthesis inhibition was determined by curve-fitting with the 4-variable inhibitory dose response equation using GraphPad Prism software.
(§3) Testosterone and pregnenolone were analyzed using Shimadzu LC30AD HPLC system (Shimadzu, Kyoto, Japan) coupled with AB SCIEX Qtrap 5500 triple quadrupole mass spectrometer (AB Sciex, Framingham, MA, USA) via ESI interface in the positive ionization mode. An ACQUITY UPLC BEH Shield RP18 column (1.7 μm, 2.1×50 mm, Milford, MA, USA) maintained at 40° C. was used to separate analytes and IS form the sample matrix.
(§4) The mobile phase was a mixture of 10 mM ammonium acetate in water containing 0.2% formic acid (A) and methanol containing 0.2% formic acid (B) at a flow rate of 0.6 mL/min. The gradient program was set as follows: from 0 min to 0.5 min, 60% B; from 0.5 min to 3.5 min, 90% B; from 3.5 min to 4.5 min, 90% B; from 4.51 min to 5.0 min, 60% B. The injection volume was […].
(§5) The MS/MS parameters were set as follows: ion spray voltage, 5500 V; curtain gas, 35 psi; Gas 1, 55 psi; Gas 2: 55 psi; temperature, […]. The optimized multiple reaction monitoring (MRM) fragmentation transitions and MS parameters of each analyte are summarized in Table 1.

[2] = molecular target: T2, testosterone (T) production in NCI-H295R cells (Homo sapiens, UniProt P05108); test: H295R Steroid Biosynthesis Inhibition Assay - inhibition of testosterone (T) production in NCI-H295R cells; type: cell-based; conditions: 48 h, LC-MS/MS, read-out: Inh. of T IC50
T2 construct: testosterone measured by LC-MS/MS as downstream steroid
T2 sequence (P05108 40-521): T1 sequence (P05108 40-521)
Protocol: as §1, §2, §3, §4, §5

| SMILES | IC50 [1] [nM] | IC50 [2] [nM] |
| --- | --- | --- |
| O=c1cc(CN2Cc3ccccc3C2)oc2cc([C@@H]3CCC[C@@H](O)CC3)oc12 (racemic) [Compound 42] | ≤ 40 | ≤ 40 |
| O=c1cc(CN2Cc3ccccc3C2)oc2cc(C3CC4(COC4)C3)oc12 [Compound 25] | ≤ 40 | ≤ 40 |
| CS(=O)(=O)N1CC2(CC(c3cc4oc(CN5Cc6ccccc6C5)cc(=O)c4o3)C2)C1 [Compound 23] | ≤ 40 | ≤ 40 |
| CS(=O)(=O)N1CCC(N2CCc3cc(CN4Cc5ccccc5C4)ccc3C2=O)CC1 [Compound 64] | ≤ 40 | 41 to 100 |
| CS(=O)(=O)N1CC2(CC(c3ccc4cc(CN5Cc6ccccc6C5)ccc4n3)C2)C1 [Compound 75] | ≤ 40 | ≤ 40 |
| CS(=O)(=O)N1CCC(COc2ccc(C3(N4Cc5ccccc5C4)CC3)c3cccnc23)CC1 [Compound 10] | 40 to 100 | ≥ 101 |
| CS(=O)(=O)c1ccc(-c2cc3oc(CN4Cc5ccccc5C4)cc(=O)c3o2)cc1 [Compound 49] | ≤ 40 | ≤ 40 |
| CS(=O)(=O)N1CC=C(c2ccc3nc(CN4Cc5ccccc5C4)cnc3c2)CC1 [Compound 81] | ≤ 40 | 41 to 100 |
| COc1ccc2c(c1)CN(Cc1ccc3nc(C4CCN(S(C)(=O)=O)CC4)ccc3c1)C2 [Compound 73] | ≤ 40 | ≤ 40 |
| NC(=O)[C@H]1CC[C@H](c2cc3oc(CN4Cc5ccccc5C4)cc(=O)c3o2)CC1 [Compound 46] | ≤ 40 | ≤ 40 |
| CS(=O)(=O)N1CCC(c2ccc3cc(CN4CCn5cccc5C4)ccc3n2)CC1 [Compound 76] | 40 to 100 | ≥ 101 |
| CN(C)C(=O)[C@H]1CC[C@H](c2cc3oc(CN4Cc5ccccc5C4)cc(=O)c3o2)CC1 [Compound 47] | ≤ 40 | ≤ 40 |
| CC(C)(O)[C@H]1CC[C@H](c2cc3oc(CN4Cc5ccccc5C4)cc(=O)c3o2)CC1 [Compound 32] | 40 to 100 | ≤ 40 |
| CC(c1ccc(OCC2CCN(S(C)(=O)=O)CC2)c2ncccc12)N1Cc2ccccc2C1 (stereo not drawn) [Compound 9] | ≤ 40 | ≤ 40 |
| CS(=O)(=O)N1CCC(c2ccc3cc(CN4Cc5ccc(F)cc5C4)ccc3n2)CC1 [Compound 72] | ≤ 40 | ≤ 40 |
| CS(=O)(=O)N1CC=C(c2coc3cc(CN4Cc5ccccc5C4)ccc3c2=O)CC1 [Compound 65] | ≤ 40 | ≤ 40 |
| CC(c1ncc(OCC2CCN(S(C)(=O)=O)CC2)c2ncccc12)N1Cc2ccccc2C1 (stereo not drawn) [Compound 12] | ≤ 40 | ≤ 40 |
| CS(=O)(=O)N1CCC(COc2coc(CN3CCc4sccc4C3)cc2=O)CC1 [Compound 5] | ≥ 100 | ≥ 101 |

Now from value to molecule:

| IC50 [1] [nM] | IC50 [2] [nM] | SMILES |
| --- | --- | --- |
| 40 to 100 | 41 to 100 | CC(C)OC(=O)N1CCC(c2cnc3cc(CN4Cc5ccccc5C4)ccc3n2)CC1 [Compound 112] |
| ≤ 40 | ≤ 40 | CCCS(=O)(=O)N1CCC(c2cnc3cc(CN4Cc5ccccc5C4)ccc3n2)CC1 [Compound 92] |
| ≥ 100 | ≥ 101 | CS(=O)(=O)N1CCC(c2cnc3cc(CN4CCn5cccc5C4)ccc3n2)CC1 [Compound 125] |
| ≤ 40 | ≥ 101 | Cn1c(C2CCN(S(C)(=O)=O)CC2)nc2cc(CN3Cc4ccccc4C3)ccc21 [Compound 129] |
| ≤ 40 | ≤ 40 | CCS(=O)(=O)N1CCC(c2cnc3cc(CN4Cc5ccccc5C4)ccc3n2)CC1 [Compound 91] |
| ≤ 40 | ≤ 40 | CS(=O)(=O)N1CCC(n2cc3ccc(CN4Cc5ccccc5C4)cc3n2)CC1 [Compound 131] |
| ≥ 100 | ≥ 101 | CC(=O)N1CCC(c2cnc3cc(CN4Cc5ccccc5C4)ccc3n2)CC1 [Compound 101] |
| ≤ 40 | ≤ 40 | CS(=O)(=O)N1CCC(c2cnc3cc(CN4Cc5ccc(F)cc5C4)ccc3n2)CC1 [Compound 87] |
| ≤ 40 | ≤ 40 | O=C(OC1CCCC1)N1CCC(c2cnc3cc(CN4Cc5ccccc5C4)ccc3n2)CC1 [Compound 114] |
